For data set [1], the system named is endothelial cells induced by VEGF. Put plainly: In vitro proliferation of endothelial cells induced by VEGF (HUV-EC-C assay). The format is cell-based, human. Here is the method:
The following protocol may also be used to measure a compound's activity against PDGF-R, FGF-R, VEGF, aFGF or Flk-1/KDR, all of which are naturally expressed by HUV-EC cells.
1. Wash and trypsinize HUV-EC-C cells (human umbilical vein endothelial cells, (American Type Culture Collection; catalogue no. 1730 CRL). Wash with Dulbecco's phosphate-buffered saline (D-PBS; obtained from Gibco BRL; catalogue no. 14190-029) 2 times at about 1 ml/10 cm^2 of tissue culture flask. Trypsinize with 0.05% trypsin-EDTA in non-enzymatic cell dissociation solution (Sigma Chemical Company; catalogue no. C-1544). The 0.05% trypsin is made by diluting 0.25% trypsin/1 mM EDTA (Gibco; catalogue no. 25200-049) in the cell dissociation solution. Trypsinize with about 1 ml/25-30 cm^2 of tissue culture flask for about 5 minutes at 37° C. After cells have detached from the flask, add an equal volume of assay medium and transfer to a 50 ml sterile centrifuge tube (Fisher Scientific; catalogue no. 05-539-6).
2. Wash the cells with about 35 ml assay medium in the 50 ml sterile centrifuge tube by adding the assay medium, centrifuge for 10 minutes at approximately 200×g, aspirate the supernatant, and resuspend with 35 ml D-PBS. Repeat the wash two more times with D-PBS, resuspend the cells in about 1 ml assay medium/15 cm^2 of tissue culture flask. […]

Data set [2] can be described thus: Phase I dose escalation studies, toxicity. To be noted: patients treated with up to 52 weeks of treatment. The class given is in vivo.
Data set [3] deals with tumor cells implanted under the serosa of the colon. Put plainly: Tumor cells surgically implanted under the serosa of the colon. The format is in vivo, mice. As to the method: 8 week old nude mice (female) (Simonsen Inc.) are used as experimental animals. Implantation of tumor cells can be performed in a laminar flow hood. For anesthesia, Xylazine/Ketamine Cocktail (100 mg/kg ketamine and 5 mg/kg Xylazine) are administered intraperitoneally. A midline incision is done to expose the abdominal cavity (approximately 1.5 cm in length) to inject 10^7 tumor cells in a volume of 100 μl medium. The cells are injected either into the duodenal lobe of the pancreas or under the serosa of the colon. The peritoneum and muscles are closed with a 6-0 silk continuous suture and the skin is closed by using wound clips. Animals are observed daily.
After 2-6 weeks, depending on gross observations of the animals, the mice are sacrificed, and the local tumor metastases to various organs (lung, liver, brain, stomach, spleen, heart, muscle) are excised and analyzed (measurement of tumor size, grade of invasion, immunochemistry, in situ hybridization determination, etc.).

Data set [4] is described as follows: In vivo intravenous pharmacokinetics, dogs.

Molecules are shown by their SMILES.

On to `Cc1cc(C)c(/C=C2\C(=O)Nc3ccccc32)[nH]1` [3-[(2,4-dimethylpyrrol-5-yl)methylidenyl]-2-indolinone], for which the IC50 in data set [1] (Homo sapiens, Endothelial cell, read-out: IC50, inhibition of in vitro proliferation of endothelial cells induced by VEGF) was approximately 70 nM. In addition, the “exposure to drug after which detectable activity is first observed” value in data set [1] (time-dependent increase in potency) was 5 min. For the same compound, the cumulative toxicity result in data set [2] was “no cumulative toxicity was observed”. The “growth of tumor cells implanted under the serosa of the colon” value in data set [3] (daily administration 25 mg/kg/day) is “significantly inhibit the growth”. Further, the tumor vascularization entry in data set [3] (pale appearance of tumors in treated animals) is reported as “decreased vascularization”. The “elimination of the parent compound from the circulation” value in data set [4] is reported as “rapid elimination”.

The values are drawn from patent US20030073837A1, “3-HETEROARYLIDENYL-2-INDOLINONE COMPOUNDS FOR MODULATING PROTEIN KINASE ACTIVITY AND FOR USE IN CANCER CHEMOTHERAPY” (priority 1998, published 2003).
